Laboratory results reported in US20170202780A1, “PHARMACEUTICAL COMPOSITION” (SENTAN Pharma Inc., priority 2014, published 2017).

Assays:
[1] = Maximum soluble amount of bulk drug for intravenous dosing; format: physicochemical; settings: expressed as dose
[2] = tested on: model mouse of myocardial ischemia-reperfusion; experiment: Selective drug delivery to ischemia reperfusion sites, fluorescence of heart specimens; format: in vivo; settings: stereo microscope, heart specimen 24 h after reperfusion; iv at reperfusion, FITC 40 mg/kg or FITC-NP 800 mg/kg
Procedure: Mice (C57BL/6J, 8 to 10 weeks of age, male, 25 to 30 g, n=3) were intraperitoneally administered with pentobarbital sodium (60 mg/kg) or subjected to inhalation anesthesia with isoflurane. During the procedure, respiration was controlled by a mechanical ventilator (tidal volume: 0.5 ml, respiratory rate: 140 breaths/min); the mouse was kept warm using a heating pad so that the rectal temperature was maintained at 36.8° C. to 37.2° C. An incision was made horizontally at the level of the third to fourth intercostal space; and the pericardium was opened. […] ST change in electrocardiogram and a change in the color of cardiac muscles were observed and ischemia in the cardiac muscles was checked. The silicone tube was removed 30 minutes after the ligature. Reperfusion was carried out and at the same time 0.1 to 0.2 ml of solution of test substance was intravenously injected. The chest was closed using 5-0 silk suture; and then extubation was performed after spontaneous breathing was confirmed. The intravenously-injected test substance is FITC (40 mg/kg) or FITC-NP (800 mg/kg). […]
Twenty-four hours after the reperfusion, the mouse was anesthetized again and endotracheal intubation was conducted, followed by thoracotomy. […] In evaluation of the specimen, SMZ1500 (manufactured by Nikon Corporation) was employed as an optical and fluorescence microscope.

[3] = tested on: model mouse of myocardial ischemia-reperfusion; experiment: Infarct size (area of infarct region/area of AAR) after myocardial ischemia-reperfusion; format: in vivo; settings: iv
Procedure: Mice (C57BL/6J, 8 to 10 weeks of age, male, 25 to 30 g, n=3) were intraperitoneally administered with pentobarbital sodium (60 mg/kg) or subjected to inhalation anesthesia with isoflurane. During the procedure, respiration was controlled by a mechanical ventilator (tidal volume: 0.5 ml, respiratory rate: 140 breaths/min); the mouse was kept warm using a heating pad so that the rectal temperature was maintained at 36.8° C. to 37.2° C. An incision was made horizontally at the level of the third to fourth intercostal space; and the pericardium was opened. […] ST change in electrocardiogram and a change in the color of cardiac muscles were observed and ischemia in the cardiac muscles was checked. […]
Twenty-four hours after the reperfusion, the mouse was anesthetized again and endotracheal intubation was conducted, followed by thoracotomy. […] In evaluation of the specimen, SMZ1500 (manufactured by Nikon Corporation) was employed as an optical and fluorescence microscope. […]
Each of the sections was stained in the same manner as described above; and the areas of infarct (region shown in white) and AAR (region shown in red) were each measured and the area of the infarct region/the area of AAR was calculated. […]
Each of the sections was stained in the same manner as described above; and the areas of infarct and AAR were each measured and the area of the infarct region/the area of AAR was calculated. […]

Row | Compound | maximum soluble amount [1] [mg/kg] | fluorescence of FITC in the infarction site [2] | reduction of the infarct size ([3]; irbesartan dosed at 3.0 mg/kg) | reduction of the infarct size ([3]; pitavastatin dosed at 10 mg/kg)
1 | CSc1ccc(C(=O)N[C@H]2CCCC[C@H]2NC(=O)CNC(=O)c2cc(C(F)(F)F)ccc2NC(=O)NC(C)C)cc1 (relative stereo) [BMS CCR2 22, 2-[(Isopropylaminocarbonyl)amino]-N-[2-[[cis-2-[[4-(methylthio)benzoyl]amino]cyclohexyl]amino]-2-oxoethyl]-5-(trifluoromethyl)benzamide] | 1.0 | – | – | –
2 | O=C1OC2(c3ccc(O)cc3Oc3cc(O)ccc32)c2ccc(N=C=S)cc21 [FITC] | – | not observed | – | –
3 | CCCCC1=NC2(CCCC2)C(=O)N1Cc1ccc(-c2ccccc2-c2nnn[nH]2)cc1 [irbesartan] | 3.0 | – | drastic reduction of the infarct size was not seen | –
4 | CCc1ccc(CCOc2ccc(CC3SC(=O)NC3=O)cc2)nc1 (stereo not shown) [pioglitazone] | 3.0 | – | – | –
5 | O=C(O)C[C@H](O)C[C@H](O)/C=C/c1c(C2CC2)nc2ccccc2c1-c1ccc(F)cc1 [pitavastatin] | 10 | – | – | drastic reduction of the infarct size was not seen
